Test results taken from patent US20260193244A1 (Protego Biopharma, Inc., priority 2022, published 2026).

Tested on: IRE1-XBP1s (HEK293 T-REx cells stably expressing the XBP1-RLuc splicing reporter)
Assay: IRE1-XBP1s activation Assay (XBP1-RLuc splicing reporter, luminescence relative to thapsigargin, with or without IRE1 inhibitor 4μ8C)
Type: cell-based
Settings: 18 h, compound 10 μM, luminescence as percentage signal relative to thapsigargin (Tg) (500 nM, 18 h)
Method: IRE1-XBP1s activation Assay: HEK293 T-REx cells stably expressing the XBP1-RLuc splicing reporter were treated with an IRE1-XBP1s activator provided herein (10 μM) in the presence or absence of the IRE1 active site inhibitor 4μ8C (32 μM) for 18 h. Luminescence was shown as the percentage signal relative to thapsigargin (Tg) (500 nM, 18 h).

SMILES	activation at 10 µM
Cc1ccc(O[C@H]2CCCN(C(=O)Cn3cc(NC(=O)CCOc4c(F)ccnc4C(C)C)cn3)C2)cc1 [Compound 159, (S)-3-((4-fluoro-2-isopropylpyridine-3-yl)oxy)-N-(1-(2-oxo-2-(3-(p-tolyloxy)piperidin-1-yl)ethyl)-1H-pyrazol-4-yl)propanamide]	≥ 50%
Cc1ccc(OCCC(=O)Nc2cnn(CC(=O)N(C)c3ccc(Oc4ccc(C)cc4)cc3)c2)cc1 [Compound 27]	< 30%
O=C(CCOc1ccccc1)Nc1cnn(CC(=O)Nc2ccc(OC(F)F)cc2)c1 [Compound 114]	30 to 50%
Cc1ccc(Oc2cccc(N(C)C(=O)Cn3cc(NC(=O)CCOc4ccccc4)cn3)c2)cc1 [Compound 116]	< 30%
Cc1ccc(OC2CCC23CCN(C(=O)Cn2cc(NC(=O)CCOc4cccc(C)n4)cn2)C3)cc1 (centres unmarked) [Compound 195, 3-((6-methylpyridin-2-yl)oxy)-N-(1-(2-oxo-2-(1-(p-tolyloxy)-6-azaspiro[3.4]octan-6-yl)ethyl)-1H-pyrazol-4-yl)propanamide]	≥ 50%
Cc1ccc(OCCN(C)C(=O)Cn2cc(NC(=O)c3nc4ccccc4o3)cn2)cc1 [Compound 153]	30 to 50%
Cc1ccc(OCCN(C)C(=O)Cn2cc(NC(=O)C3CCC3Nc3ccnc(F)n3)cn2)cc1 (centres unmarked) [Compound 167]	30 to 50%
Cc1ccc(OC2CCCN(C(=O)Cn3cc(NC(=O)CCOc4ccccc4)cn3)C2)cc1 (centres unmarked) [Compound 11]	30 to 50%
Cc1ccc(OC2CCCN(C(=O)Cn3cc(NC(=O)CCOc4ccccc4C)cn3)C2)cc1 (centres unmarked) [Compound 36]	≥ 50%
Cc1ccc(N2CCCN(C(=O)Cn3cc(NC(=O)CCOc4ccccc4)cn3)CC2)cc1 [Compound 23]	< 30%
Cc1ccc(OCCN(C)C(=O)Cn2cc(NC(=O)C3CC(Nc4ncc(F)cn4)C3)cn2)cc1 (centres unmarked) [Compound 170]	< 30%
Cc1c(F)cc(O[C@@H]2CCCN(C(=O)Cn3cc(NC(=O)CCNc4ccnc(F)n4)cn3)C2)cc1F [Compound 173]	30 to 50%
Cc1ccc(OC2CCN(C(=O)Cn3cc(NC(=O)CCOc4ccccc4)cn3)CC2)cc1 [Compound 9]	< 30%
Cc1ccc(O[C@H]2CCCN(C(=O)Cn3cc(NC(=O)CCNc4ccnc(F)n4)cn3)C2)cc1 [Compound 178]	≥ 50%
